“Also recorded” adds a separate entry of the source. Where no end group is shown, it is not given here. [ ]: non-standard residue; d: D form. Cit = NC(=O)NCCC[C@H](N)C(=O)O
Experiments:
[1] = test system: splenic T cells from BALB/c mice with PGIA; experiment: Splenic T cell proliferation, [3H]thymidine incorporation (stimulation index); format: cell-based; settings: 5 μM peptide, splenocytes of PGIA BALB/c mice, p<0.05
Experimental: (§1) FIG. 3 illustrates T cell proliferation and T cell polarization (TH1:TH2) induced by P70, DerG-PG70 and J-PG70 peptides (Panel A). […] Panel B) T cell polarization by Th1:Th2 cytokine (IFNγ:IL-4) ratios. […] It is noted that these two responses are mutually exclusive. Amounts of IFNγ and IL-4 in culture fluid samples were determined by ELISA (enzyme-linked immunosorbent assay, a common test that uses antibodies and color change to measure protein amounts). The “baseline” value for this ratio, i.e., the value of this ratio in untreated (unpolarized) T cells, is around 3.2 (the black bar, “None,” in FIG. 3B). An increased ratio indicates relatively more IFNγ and/or less IL-4, which in turn indicates a shift towards a Th1 response and away from a Th2 response. A decreased value (below 3.2) indicates relatively more IL-4 and/or less IFNγ and thus a shift towards a Th2 response and away from a Th1 response. Cells were isolated from spleens by gently pushing the organ through a wire cell sieve mesh screen with a sterile 5 cc syringe plunger. The spleens were from BALB/c retired female breeder mice with PGIA (n=3), cultured individually for 5 days in the absence (None) or presence of the different designated peptides (5 μM each) on PG protein (10 m). As has been previously shown, the only cell type incorporating tritiated [^3H]thymidine into DNA are T cells. Therefore, proliferation of splenic T cells was measured in 96 well plates by use of [^3H]thymidine ([…]; specific activity: 2 Ci/mmol, Amersham, Arlington Heights, Ill.) incorporation from day 4 to 5 and expressed as a stimulation index based on the counts per minute normalized to the untreated control (panel A). Treatments were done in triplicate wells for the proliferation assay, and identical triplicate wells were used to harvest culture fluid at 48 hours for cytokine assays. The amounts of IFNγ (a Th1 cytokine) and IL-4 (a Th2 cytokine) in the media of the same cultures were determined by ELISA and expressed as ratios.
(§2) The effect of L.E.A.P.S. conjugates on T cell responses is shown in this example. J-PG70 conjugates modulated the proliferation of T cells isolated from spleen or lymph-node cells from wild type BALB/c mice with PGIA or naïve, PG-TCR-transgenic BALB/c mice.

IFNγ:IL-4 = experiment: T cell polarization by Th1:Th2 cytokine (IFNγ:IL-4) ratio, ELISA; format: cell-based; settings: 5 μM peptide, splenocytes of PGIA BALB/c mice; baseline ratio around 3.2
Experimental: as §1, §2

[2] = test system: Th1, Th2, Th17, and regulatory T cells (Tregs); experiment: Proportions of Th1, Th2, Th17 and Tregs in spleen cell cultures from vaccinated mice (flow cytometry); format: in vivo; settings: spleen cell cultures from vaccinated PGIA mice, n=4 mice/group
Experimental: The proportions of Th1, Th2, Th17, and regulatory T cells (Tregs) in spleen cell cultures from the vaccinated mice were determined by flow cytometry. Protection was associated with decreased proportions of Th1 and Th17 cells, and increases in Th2 cells and Tregs (p<0.05-0.001, Fisher's LSD test; n=4 mice/group). […] This is similar to the pattern of cytokines secreted by the cells.
In this example, the effects of L.E.A.P.S.-PG peptide conjugate vaccination on the proportions of splenic Th1, Th2, Th17, and regulatory T cells (Tregs) are shown in FIG. 8. The proportions of Th1, Th2, Th17, and regulatory T cells (Tregs) in spleen cell cultures from the vaccinated mice were determined by flow cytometry. Protection was associated with decreased proportions of Th1 and Th17 cells, and increases in Th2 cells and Tregs (p<0.05-0.001, Fisher's LSD test; n=4 mice/group).

spleen cells = experiment: PG-specific spleen cell proliferation of vaccinated PGIA mice (in vitro assay); format: in vivo; settings: cells from vaccinated PGIA mice, in vitro stimulation
Source text: (§3) The joint sections were stained with hematoxylin and eosin. One representative section per group is shown. […] Protection was associated with reduced PG-specific T cell proliferation.

[3] = test system: ankle (tibio-talar) joints; experiment: Histology of ankle (tibio-talar) joints of vaccinated PGIA mice; format: in vivo; settings: PGIA mice 36 days after treatment, conjugate in adjuvant
Source text: Histology of ankle (tibio-talar) joints are shown in (A) normal mice and in (B-D) PGIA mice 36 days after undergoing treatment with L.E.A.P.S. conjugates. The normal joint is characterized by smooth cartilage surfaces on the tibia (Ti) and talus (Ta), inflammatory cell-free joint cavity (JC) and synovial tissue (ST). The ST is lined by a thin layer of cells and contains mainly fat tissue. Ankle joints from mice with PGIA shown in (B), treated with PBS in adjuvant, show evidence of synovial thickening (hyperplasia), inflammatory cell accumulation in the JC and ST, as well as partial erosion of cartilage surface (arrows).
as §3

[4] = test system: proteoglycan-induced arthritis (PGIA); experiment: L.E.A.P.S. peptide vaccination of PGIA mice, AI scores; format: in vivo; settings: n=8 mice/group
Source text: In this example, in vivo experiments of efficacy and protection are shown in FIG. 4, which indicates groups from a first study of efficacy of vaccine candidates, and related controls.

IL-12p40 = experiment: Intracellular expression of IL-12p40 by DCs (flow cytometry); format: cell-based, BALB/c mice
Experimental: FIG. 2 illustrates the effects of L.E.A.P.S.-PG conjugates on intracellular expression of IL-12p40 by DCs. DCs from BALB/c female retired breeder normal mice (n=3), having no PGIA disease (generated from bone marrow as described under FIG. 1) were incubated for 24 hours with the indicated peptides (5 μM each) at a cell density of 1×10^6 DCs/mL. DCs not receiving treatment (None) or treated with LPS (1 μg/ml) served as negative and positive controls, respectively. At the end of treatment, DCs were harvested and incubated with 1 μg/mL monensin (GolgiStop, BD Biosciences) for 4 hours to prevent cytokine secretion. Surface staining of DCs was done with fluoresecein isothiocyanate-(FITC) conjugated anti-CD11c antibody. The cells were then fixed and permeabilized using BD Biosciences' Cytofix/Cytoperm Kit. Intracellular IL-12 was detected with a phycoerythrin-(PE) labeled antibody to mouse IL-12p40 (eBioscience). Flow cytometry was carried out as described above. The number of IL-12p40+DCs was determined by gating on CD11c+ cells, and the results expressed as the % of IL-12p40+ of all CD11c+DCs. […] The error bars represent ±SEM.

Bone marrow-derived DCs = experiment: DC maturation in vitro: MHC class II and CD86 expression by flow cytometry; format: cell-based; settings: 5 μM peptide, 24 hours, bone marrow-derived DCs of naïve BALB/c mice
Experimental: FIG. 1 illustrates the effects of PG and L.E.A.P.S.-PG conjugates on DC maturation as indicated by MHC class II and CD86 expression (left and right panels respectively) following treatment (24 hours). […] MFI: mean fluorescence intensity (arbitrary units). […]
To generate DCs, the bone marrow cells were cultured for 9 days in the presence of recombinant mouse granulocyte-macrophage colony stimulating factor (GM-CSF, Sigma-Aldrich, St Louis, Mo.) at a dose of 200 U/ml (Egelston C., Kurko J., Besenyei T. et al. (2012) Suppression of dendritic cell maturation and T cell proliferation by synovial fluid myeloid cells from mice with autoimmune arthritis. Arthritis Rheum 64: 3179-3188). […] After the 24-hour culture with the indicated stimulants, the cells were washed with PBS containing 0.5% bovine serum albumin and 0.01% sodium azide (fluorescence activated cell sorter (FACS) buffer). […]

Substance | T cell proliferation rate (stimulation index) versus untreated [1] | T cell polarization, Th1:Th2 cytokine (IFNγ:IL-4) ratio versus untreated (IFNγ:IL-4) | Immune deviation (proportions of Th1, Th2, Th17, Tregs) [2] | PG-specific spleen cell proliferation (spleen cells) | Histology of ankle joints (synovial hyperplasia, cell infiltration, cartilage erosion) [3] | Day from which difference from the other groups became statistically significant ([4]; p<0.05 repeated measures ANOVA) [days] | Disease severity (AI scores) ([4]; vaccine in adjuvant) | % of IL-12p40+ of all CD11c+ DCs (IL-12p40; peptide 5 μM, 24 hours, untreated group 3.8%) [%] | DC maturation (MHC class II and CD86 surface marker expression) (Bone marrow-derived DCs) | IL-12 intracellular expression in matured DCs (IL-12p40; 24 hours of incubation)
ATEGRVRVNSAYQDK (listed as Homo Sapiens) [PG70, proteoglycan aggrecan (G1) residues 70-84, reference compound] | significantly increased | significantly skewed towards a Th1 response | – | – | – | – | – | – | – | –
DGQEEKAGVVSTGLIGGGATEGRVRVNSAYQDK (Heteroconjugate Construct) [DerG-PG70] | no significant difference | significant shift towards Th2; also recorded: significantly skewed towards a Th2 response | inducing immune deviation in favor of Th2 and Treg cells | much less responsive | only mild ST hyperplasia as shown in (D), but no cell infiltration or cartilage damage | ~12 | dramatically suppressed; also recorded: therapeutically effective | – | – | –
DLLKNGERIEKVEGGGATEG(Cit)VRVNSAYQDK (DLLKNGERIEKVEGGGATEG[Cit]VRVNSAYQDK) [J-PG70Cit] | significantly increased | significant shift towards Th1; also recorded: significantly skewed towards a Th1 response | – | – | – | – | – | 7.3 | – | –
DLLKNGERIEKVEGGGATEGRVRVNSAYQDK (Heteroconjugate Construct) [J-PG70, L.E.A.P.S. heteroconjugate of ICBL Peptide J linked to PG70 through a triglycine linker] | higher T cell proliferation as compared to PG70; also recorded: significantly increased | significantly skewed towards a Th1 response | – | – | – | – | – | – | led to matured dendritic cells | modulated the IL-12 intracellular expression

Source: patent US20160158330A1, “METHODS OF PREPARATION AND COMPOSITION OF PEPTIDE CONSTRUCTS USEFUL FOR TREATMENT OF RHEUMATOID ARTHRITIS” (CEL-SCI CORPORATION, priority 2013, published 2016)
